Experimental data: ChEMBL document CHEMBL5584244, “Discovery of novel pyrrolo[2,1-c][1,4]benzodiazepine-3,11-dione (PBD) derivatives as selective HDAC6 inhibitors for the efficient treatment of idiopathic pulmonary fibrosis (IPF) in vitro and in vivo” (Eur J Med Chem, 2024)
The source made the active and inactive calls. The rule behind the calls is not given here.

Tests used:
Histone deacetylase 1 = Histone deacetylase 1 (Homo sapiens, UniProt Q13547); experiment: Inhibition of C-terminal His6/Flag-tagged recombinant human full length HDAC1 using Boc-Lys (Ac)-AMC as substrate incubated for 120 mins by fluorescence analysis
Histone deacetylase 1, sequence (Q13547 whole entry): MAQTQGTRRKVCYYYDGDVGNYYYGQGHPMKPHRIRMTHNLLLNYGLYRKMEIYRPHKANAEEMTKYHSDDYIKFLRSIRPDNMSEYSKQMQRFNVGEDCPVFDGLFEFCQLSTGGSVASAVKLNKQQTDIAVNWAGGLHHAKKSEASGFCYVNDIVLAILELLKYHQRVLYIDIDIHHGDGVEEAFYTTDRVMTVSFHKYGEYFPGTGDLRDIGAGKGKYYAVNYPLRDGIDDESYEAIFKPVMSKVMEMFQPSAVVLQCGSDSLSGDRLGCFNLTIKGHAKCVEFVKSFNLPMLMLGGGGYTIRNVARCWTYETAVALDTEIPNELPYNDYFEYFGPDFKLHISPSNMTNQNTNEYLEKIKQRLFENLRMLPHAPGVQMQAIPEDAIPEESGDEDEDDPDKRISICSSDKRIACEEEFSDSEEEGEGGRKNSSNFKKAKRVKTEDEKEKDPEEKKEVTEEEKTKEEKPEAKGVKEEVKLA

Histone deacetylase 2 = Histone deacetylase 2 (Homo sapiens, UniProt Q92769); experiment: Inhibition of recombinant human full length HDAC2 using Boc-Lys (Ac)-AMC as substrate incubated for 120 mins by fluorescence analysis
Histone deacetylase 2, sequence (Q92769 whole entry): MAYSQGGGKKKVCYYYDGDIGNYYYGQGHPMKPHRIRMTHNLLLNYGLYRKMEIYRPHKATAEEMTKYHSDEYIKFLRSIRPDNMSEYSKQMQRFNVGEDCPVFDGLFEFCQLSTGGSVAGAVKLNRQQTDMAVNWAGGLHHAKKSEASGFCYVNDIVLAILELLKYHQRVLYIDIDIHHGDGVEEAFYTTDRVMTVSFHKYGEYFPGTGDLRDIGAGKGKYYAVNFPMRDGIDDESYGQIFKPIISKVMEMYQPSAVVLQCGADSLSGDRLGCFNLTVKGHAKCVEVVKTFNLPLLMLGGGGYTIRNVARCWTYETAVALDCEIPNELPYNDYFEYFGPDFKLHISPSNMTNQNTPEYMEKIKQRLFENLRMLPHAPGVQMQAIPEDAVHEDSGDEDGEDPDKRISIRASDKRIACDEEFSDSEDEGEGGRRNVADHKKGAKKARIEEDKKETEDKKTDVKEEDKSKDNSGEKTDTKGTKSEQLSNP

[1] = molecular target: T1, Protein deacetylase HDAC6 (Homo sapiens) (UniProt Q9UBN7); experiment: Inhibition of HDAC6 in TGF-beta1-induced HELF cells assessed as upregulation of acetylated histone H3 level at 2.5 to 10 uM by Western blot analysis; assay type: cell-based; details: dose 2.5-10 µM
T1 sequence (whole entry): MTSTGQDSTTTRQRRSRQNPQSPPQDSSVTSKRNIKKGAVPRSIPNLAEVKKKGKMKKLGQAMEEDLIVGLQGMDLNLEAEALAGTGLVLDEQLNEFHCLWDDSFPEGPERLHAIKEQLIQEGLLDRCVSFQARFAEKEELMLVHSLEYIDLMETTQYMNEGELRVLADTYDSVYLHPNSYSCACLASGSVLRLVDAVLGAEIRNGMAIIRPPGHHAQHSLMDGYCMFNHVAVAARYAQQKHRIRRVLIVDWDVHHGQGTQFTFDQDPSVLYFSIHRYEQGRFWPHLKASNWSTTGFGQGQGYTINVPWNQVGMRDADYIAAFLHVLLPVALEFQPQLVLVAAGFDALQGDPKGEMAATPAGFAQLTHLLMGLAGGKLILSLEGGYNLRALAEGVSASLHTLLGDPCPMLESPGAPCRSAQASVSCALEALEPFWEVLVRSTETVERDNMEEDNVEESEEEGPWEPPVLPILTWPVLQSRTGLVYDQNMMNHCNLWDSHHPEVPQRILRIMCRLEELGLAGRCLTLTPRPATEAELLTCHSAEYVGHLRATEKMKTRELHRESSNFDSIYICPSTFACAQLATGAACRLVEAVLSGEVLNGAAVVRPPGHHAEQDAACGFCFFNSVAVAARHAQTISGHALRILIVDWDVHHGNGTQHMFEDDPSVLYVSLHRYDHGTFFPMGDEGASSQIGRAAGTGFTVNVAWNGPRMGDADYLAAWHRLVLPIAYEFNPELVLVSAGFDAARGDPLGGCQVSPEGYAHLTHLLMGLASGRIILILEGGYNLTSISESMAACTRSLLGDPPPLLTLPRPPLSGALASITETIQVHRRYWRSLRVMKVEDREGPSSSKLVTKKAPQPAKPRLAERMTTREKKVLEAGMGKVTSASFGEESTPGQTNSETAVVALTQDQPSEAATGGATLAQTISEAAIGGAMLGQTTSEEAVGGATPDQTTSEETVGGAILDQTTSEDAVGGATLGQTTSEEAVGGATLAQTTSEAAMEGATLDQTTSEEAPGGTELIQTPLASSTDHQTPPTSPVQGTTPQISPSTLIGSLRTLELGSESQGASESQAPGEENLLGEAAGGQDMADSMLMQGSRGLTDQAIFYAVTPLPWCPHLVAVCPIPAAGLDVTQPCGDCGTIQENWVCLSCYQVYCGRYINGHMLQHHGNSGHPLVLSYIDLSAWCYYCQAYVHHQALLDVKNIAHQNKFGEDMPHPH

HELF = experiment: Anti-pulmonary fibrosis activity against TGF-beta1-induced HELF cells assessed as reduction in COL1A1 protein expression incubated for 48 hrs by Western blot analysis; assay type: functional, cell-based; details: Homo sapiens, dose 2.5-10 µM
[2] = molecular target: Mothers against decapentaplegic homolog 2 (Homo sapiens) (UniProt Q15796); experiment: Inhibition of TGF-beta1-induced Smad2 protein phosphorylation level in HELF cells incubated for 48 hrs by Western blot analysis; assay type: cell-based; details: dose 2.5-10 µM
Mothers against decapentaplegic homolog 2 (Homo sapiens), sequence (Q15796 whole entry): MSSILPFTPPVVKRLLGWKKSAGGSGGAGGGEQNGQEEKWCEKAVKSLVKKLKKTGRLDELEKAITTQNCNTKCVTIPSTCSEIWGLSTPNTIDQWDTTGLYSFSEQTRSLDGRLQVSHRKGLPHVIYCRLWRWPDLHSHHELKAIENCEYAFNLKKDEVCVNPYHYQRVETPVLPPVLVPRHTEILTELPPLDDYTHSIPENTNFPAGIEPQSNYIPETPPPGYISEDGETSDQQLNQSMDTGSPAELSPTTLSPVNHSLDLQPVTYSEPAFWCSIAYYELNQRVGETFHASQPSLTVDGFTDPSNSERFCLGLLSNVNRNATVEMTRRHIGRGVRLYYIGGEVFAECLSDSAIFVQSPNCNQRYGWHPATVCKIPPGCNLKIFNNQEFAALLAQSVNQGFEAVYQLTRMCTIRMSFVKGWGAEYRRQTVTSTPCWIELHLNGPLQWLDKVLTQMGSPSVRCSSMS

[3] = molecular target: Mothers against decapentaplegic homolog 3 (Homo sapiens) (UniProt P84022); experiment: Inhibition of TGF-beta1-induced Smad3 protein phosphorylation level in HELF cells incubated for 48 hrs by Western blot analysis; assay type: cell-based; details: dose 2.5-10 µM
Mothers against decapentaplegic homolog 3 (Homo sapiens), sequence (P84022 2-425 limits assumed): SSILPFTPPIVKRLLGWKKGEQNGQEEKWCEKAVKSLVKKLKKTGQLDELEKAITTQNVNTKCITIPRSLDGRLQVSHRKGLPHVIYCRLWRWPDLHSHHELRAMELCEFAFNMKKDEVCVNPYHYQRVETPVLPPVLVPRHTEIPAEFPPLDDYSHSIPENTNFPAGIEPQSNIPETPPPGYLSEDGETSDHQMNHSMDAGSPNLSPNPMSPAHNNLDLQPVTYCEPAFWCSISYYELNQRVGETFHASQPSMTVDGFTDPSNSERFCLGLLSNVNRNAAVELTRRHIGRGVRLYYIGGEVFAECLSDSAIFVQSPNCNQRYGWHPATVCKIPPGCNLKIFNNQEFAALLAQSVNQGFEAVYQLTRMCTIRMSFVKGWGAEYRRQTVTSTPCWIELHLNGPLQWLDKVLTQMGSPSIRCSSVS

[4] = Stability of compound in human plasma assessed as remaining parent compound at 2 uM incubated for 120 mins by LC-MS/MS analysis; assay type: ADME, cell-free; details: read-out: Stability
[5] = Half life in human liver microsomes at 100 uM by LC-MS/MS analysis; assay type: ADME, Microsome
[6] = Intrinsic clearance in human liver microsomes at 100 uM incubated upto 60 mins by LC-MS/MS analysis; assay type: ADME, Microsome; details: read-out: CLH
[7] = Stability of compound in human liver microsomes assessed as remaining parent compound at 100 uM incubated after 60 mins by LC-MS/MS analysis; assay type: ADME, Microsome; details: read-out: Stability
Mus musculus [8] = experiment: Anti-pulmonary fibrosis activity in bleomycin-induced C57BL/6 mouse model of pulmonary fibrosis assessed as inhibition of HDAC activity in lung at 50 to 100 mg/kg, ip for 3 weeks by fluorescence based microplate reader analysis; assay type: functional, organism-based; details: dose 50-100 mg/kg
Mus musculus [9] = experiment: Anti-pulmonary fibrosis activity in bleomycin-induced C57BL/6 mouse model of pulmonary fibrosis assessed as decrease structural damage in lung at 50 to 100 mg/kg, ip for 3 weeks by H and E staining based fluorescence microscopic analysis; assay type: functional, organism-based; details: dose 50-100 mg/kg
Mus musculus [10] = experiment: Anti-pulmonary fibrosis activity in bleomycin-induced C57BL/6 mouse model of pulmonary fibrosis assessed as decrease in collapse of the alveolar cavity in lung at 50 to 100 mg/kg, ip for 3 weeks by H and E staining based fluorescence microscopic analysis; assay type: functional, organism-based; details: dose 50-100 mg/kg
Mus musculus [11] = experiment: Anti-pulmonary fibrosis activity in bleomycin-induced C57BL/6 mouse model of pulmonary fibrosis assessed as decrease in thickening of the alveolar wall in lung at 50 to 100 mg/kg, ip for 3 weeks by H and E staining based fluorescence microscopic analysis; assay type: functional, organism-based; details: dose 50-100 mg/kg
Mus musculus [12] = experiment: Anti-pulmonary fibrosis activity in bleomycin-induced C57BL/6 mouse model of pulmonary fibrosis assessed as decrease in collapse of the alveolar cavity in lung at 50 to 100 mg/kg, ip for 3 weeks by Masson trichrome staining based microscopic analysis; assay type: functional, organism-based; details: dose 50-100 mg/kg
Mus musculus [13] = experiment: Anti-pulmonary fibrosis activity in bleomycin-induced C57BL/6 mouse model of pulmonary fibrosis assessed as decrease in thickening of the alveolar wall in lung at 50 to 100 mg/kg, ip for 3 weeks by Masson trichrome staining based microscopic analysis; assay type: functional, organism-based; details: dose 50-100 mg/kg
Mus musculus [14] = experiment: Anti-pulmonary fibrosis activity in bleomycin-induced ip dosed C57BL/6 mouse model of pulmonary fibrosis assessed as inhibition of alpha-SMA protein expression level in lung for 3 weeks by immunohistochemical analysis; assay type: functional, organism-based; details: dose 50-100 mg/kg

For `CC(=O)O.O=C(NO)c1ccc(CN2C(=O)[C@@H]3CCCN3Cc3ccccc32)cc1`, the IC50 (Histone deacetylase 1) was 0.878 µM, the IC50 (Histone deacetylase 2) was 3.14 µM and the inhibition [1] was “inactive”. For the same compound, the Activity (HELF) was “Dose-Dependent Effect”, the inhibition [2] was “Dose-Dependent Effect” and the inhibition [3] was “Dose-Dependent Effect”. The remaining at 2 h, 2 µM [4] was 92.3%, the half-life at 100 µM [5] was > 2.42 h and the microsomal CLint at 100 µM [6] was < 9.6 µL/min/mg. For the same compound, the remaining at 1 h, 100 µM [7] was 77.4%, the inhibition (Mus musculus [8]) was “Active” and the Activity (Mus musculus [9]) was “Active”. For the same compound, the Activity (Mus musculus [10]) was “Active”, the Activity (Mus musculus [11]) was “inactive” and the Activity (Mus musculus [12]) was “inactive”. The Activity (Mus musculus [13]) was “inactive” and the inhibition (Mus musculus [14]) was “Dose-Dependent Effect”.
